{"source": "paper PMC5389830", "about": "“Longitudinal monitoring of Gaussia and Nano luciferase activities to concurrently assess ER calcium homeostasis and ER stress in vivo” (PLoS ONE, 2017)", "target": "T1, GLuc (Gaussia luciferase) (Gaussia princeps (in: crustaceans), UniProt Q9BLZ2)", "T1 construct": "secreted GLuc without SERCaMP peptide, in culture medium of transfected SH-SY5Y cells", "T1 sequence (Q9BLZ2 18-185)": "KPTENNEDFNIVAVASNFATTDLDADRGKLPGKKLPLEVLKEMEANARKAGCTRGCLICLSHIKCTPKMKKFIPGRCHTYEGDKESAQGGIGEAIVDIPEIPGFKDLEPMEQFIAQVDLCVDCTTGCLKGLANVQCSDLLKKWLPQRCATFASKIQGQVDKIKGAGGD", "assay": "luminescence, culture medium of transfected SH-SY5Y cells", "type": "biochemical", "settings": "8 μM coelenterazine; flash kinetics", "data": [{"smiles": "Oc1ccc(Cc2nc3c(Cc4ccccc4)nc(-c4ccc(O)cc4)cn3c2O)cc1", "note": "[coelenterazine]", "values": [{"measurement": "luminescence, culture medium of transfected SH-SY5Y cells", "value": "GLuc and secNLuc both showed activity towards CTZ, with GLuc exhibiting flash kinetics"}]}]}
